The text below walks through data of patent US20220125838A1, “IMMUNOMODULATORY GLYCOSPHINGOLIPIDS AND METHODS OF USE THEREOF” (President and Fellows of Harvard College, priority 2019, published 2022).

For the experiment, the system named is NKT cells. Description: In vivo cytokine assay (serum IL-2, IFN-γ, IL-4 after intraperitoneal injection). As to conditions: 1 μg per mouse intraperitoneally. More on the design: species or system mice. As to the method: To investigate the relevance of structural variation to immunomodulatory function, an in vitro panel screening assay of synthetic BfaGCs was carried out in a co-culture system with bone marrow-derived dendritic cells (BMDCs) and NKT cells. Levels of interleukin 2 (IL-2) production in the presence of individual BfaGCs clearly distinguished two groups with different levels of NKT cell recognition: strong and weak stimulators (FIG. 3A). Strikingly, all 10 strong stimulators have branched (either ω-2 or ω-3) sphinganine chains, whereas none of 11 weak stimulators have such branching. […] These molecules were individually injected into mice (1 μg per mouse, intraperitoneally), and systemic levels of cytokines were quantified and directly compared to those in mice injected with KRN7000 (a prototypic Th1 agonist) and mice injected with OCH (a Th2 agonist). Serum IL-2 levels 2 h after injection show trends consistent with in vitro results (KRN7000>SB2217>SB2219), which implies that BfaGCs are also functioning in vivo (FIG. 3B). […] Although It is well established that aGCs with very long fatty acyl chains (e.g., KRN7000, which has a C26 saturated chain) selectively induce Th1-type cytokines and that shorter-sphingoid-chain aGCs (e.g., OCH, which has a C8 saturated chain) skew toward Th2, aGCs with acyl and sphingoid chain lengths of long-chain fatty acids (C15-C19), prominently identified in B. fragilis, are less well investigated (21).
Mice (n=4 per group) were given 100 uL of KRN7000, OCH, SB2217 or SB2219 solution (1 ug, 0.9% DMSO in PBS) intraperitoneally. Animals were bled at 2 hours after injection from tail vein (˜100 uL per animal). At 18 hours after injection, animals were euthanized and second 100 uL blood was drawn by cardiac puncture. Fresh blood was collected to Z-Gel tubes (Sarstedt) to form blood clot and spun at 10,000×g for 5 minutes for serum separation. Samples were frozen at −80 degree until analysis by multiplex ELISA (Eve Technologies, Calgary, Canada).

The mark [1] stands for this setting: serum at observed time points (2 and 18 hours).

Regarding `CCCCCCCCCCCCCCCCCCCCCCCCCC(=O)N[C@@H](CO[C@H]1O[C@H](CO)[C@H](O)[C@H](O)[C@H]1O)[C@H](O)[C@H](O)CCCCCCCCCCCCCC` [KRN7000], the “serum IL-2 level” value (2 h after injection) is listed as “KRN7000>SB2217>SB2219”. Also, under setting [1], the “Th1 cytokine (IFN-γ) induction in vivo” value is reported as “stimulates IFN-gamma”.

Consider `CCCCCCCCCCCCCCCCCCCCCCCC(=O)N[C@@H](CO[C@H]1O[C@H](CO)[C@H](O)[C@H](O)[C@H]1O)[C@H](O)[C@H](O)CCCCC` [OCH], for which the “Th2 cytokine (IL-4) induction in vivo” value under setting [1] is “stimulates IL-4”.
